Counter-ions that a name gives are not always drawn. Like-named read-outs stand apart in the source and are kept apart here.
Key:
[1] = test system: NCI-H292 lung cancer cells; assay: FDA drug screening, complete media vs cholesterol-free media without statin (TABLE 1); type: cell-based, human
[2] = test system: NCI-H292 lung cancer cells; assay: FDA drug screening, complete media vs cholesterol-free media with simvastatin (TABLE 2); type: cell-based, human
[3] = NCI-H292 cells, cholesterol-free media without statin, FDA drug library screen
[4] = NCI-H292 cells, complete media, FDA drug library screen
[5] = complete vs cholesterol-free media, >0 enhanced anti-cancer activity, about 0 neutral, <0 antagonist
[6] = NCI-H292 cells, cholesterol-free media with simvastatin 0.04 μM, cell growth value in FDA drug screen
[7] = NCI-H292 cells, complete media, cell growth value in FDA drug screen
[8] = complete media minus cholesterol-free media + simvastatin, >0 enhanced anti-cancer activity, about 0 neutral, <0 antagonist
[9] = NCI-H292 cells, FDA drug library screen, cholesterol-free media with simvastatin 0.04 μM
[10] = NCI-H292 cells, FDA drug library screen, complete media
[11] = complete media vs cholesterol-free media + simvastatin (0.04 μM), >0 enhanced anti-cancer activity, about 0 neutral, <0 antagonist
[12] = Complete minus Cholesterol-free, greater than 0 enhanced anti-cancer activity, about 0 neutral, below 0 antagonists
[13] = NCI-H292 cells in cholesterol-free media without statin
[14] = NCI-H292 cells in complete media
[15] = Complete minus Cholesterol-free, >0 enhanced anti-cancer activity, about 0 neutral, <0 antagonist
[16] = NCI-H292 cells, cholesterol-free media without statin
[17] = NCI-H292 cells, FDA library drug in cholesterol-free media with simvastatin 0.04 μM
[18] = NCI-H292 cells, FDA library drug in complete media
[19] = complete vs cholesterol-free media, greater than 0 enhanced anti-cancer activity, about 0 neutral, below 0 antagonists
[20] = NCI-H292 cells, cholesterol-free media with simvastatin 0.04 μM, FDA drug library screen (TABLE 2)
[21] = NCI-H292 cells, complete media, FDA drug library screen (TABLE 2)
[22] = complete media minus cholesterol-free media + simvastatin (0.04 μM), >0 enhanced anti-cancer activity, about 0 neutral, <0 antagonist
[23] = Complete minus Cholesterol-free, greater than 0 enhanced anti-cancer activity, about 0 neutral, below 0 antagonist
[24] = NCI-H292 cells, FDA drug library screen, cholesterol-free media without statin

## CCOC(=O)n1ccn(C)c1=S [Carbimazole]
[1]; [3]
  Cholesterol-free: 1.183
[1]; [4]
  Complete: 1.469
[1]; [5]
  Difference: 0.29
[2]; [6]
  Cholesterol-free media + simvastatin (0.04 μM): 1.468
[2]; [7]
  Complete Media: 1.519
[2]; [8]
  Difference: 0.05

## O=C(O)/C=C/c1ccc(Cn2ccnc2)cc1 [Ozagrel (hydrochloride)]
[1]; [3]
  Cholesterol-free: 0.9304
[1]; [4]
  Complete: 1.021
[1]; [5]
  Difference: 0.09
[2]; [9]
  Cholesterol-free media + simvastatin (0.04 μM): 1.247
[2]; [10]
  Complete Media: 1.131
[2]; [11]
  Difference: −0.12

## COc1ccccc1N1CCN(CC(O)COc2cccc3ccccc23)CC1 (centres unmarked) [Naftopidil]
[1]; [12]
  Difference: −0.98
[1]; [13]
  Cholesterol-free: 1.94
[1]; [14]
  Complete: 0.9592
[2]; [6]
  Cholesterol-free media + simvastatin (0.04 μM): 0.6892
[2]; [7]
  Complete Media: 0.763
[2]; [8]
  Difference: 0.07

## O=c1cccc2n1C[C@@H]1CNC[C@H]2C1 [Cytisinicline]
[1]
  Cholesterol-free: 1.156
  Complete: 0.9676
  Difference: −0.19
[2]
  Cholesterol-free media + simvastatin (0.04 μM): 1.003
  Complete Media: 1.015
  Difference: 0.01

## CN(CCN1CCC(OC(=O)Nc2ccccc2-c2ccccc2)CC1)C(=O)c1ccc(CN2CCC(C(N)=O)CC2)cc1 [Revefenacin]
[1]
  Complete: 0.9642
  Difference: −0.65
[2]
  Cholesterol-free media + simvastatin (0.04 μM): 1.184
  Complete Media: 1.038
  Difference: −0.15

## C[N+](C)(C)CCOP(=O)(O)OP(=O)([O-])OC[C@H]1O[C@@H](n2ccc(N)nc2=O)[C@H](O)[C@@H]1O [Citicoline]
[1]; [3]
  Cholesterol-free: 0.7726
[1]; [4]
  Complete: 1.062
[1]; [5]
  Difference: 0.29
[2]; [9]
  Cholesterol-free media + simvastatin (0.04 μM): 0.6677
[2]; [10]
  Complete Media: 1.557
[2]; [8]
  Difference: 0.89

## CC(=O)O[C@]1(C(C)=O)CC[C@H]2[C@@H]3C=C(C)C4=CC(=O)CC[C@]4(C)[C@H]3CC[C@@]21C [Megestrol acetate]
[1]; [15]
  Difference: −0.26
[1]; [16]
  Cholesterol-free: 1.189
[1]; NCI-H292 cells, complete media
  Complete: 0.9289
[2]; [17]
  Cholesterol-free media + simvastatin (0.04 μM): 1.252
[2]; [18]
  Complete Media: 0.9647
[2]; [11]
  Difference: −0.29

## CCCCCC(=O)O[C@]1(C(C)=O)CC[C@H]2[C@@H]3CCC4=CC(=O)CC[C@]4(C)[C@H]3CC[C@@]21C [Hydroxyprogesterone caproate]
[1]; [16]
  Cholesterol-free: 1.133
[1]; NCI-H292 cells, complete media
  Complete: 0.7393
[1]; [19]
  Difference: −0.39
[2]; [9]
  Cholesterol-free media + simvastatin (0.04 μM): 1.029
[2]; [10]
  Complete Media: 0.8959
[2]; [11]
  Difference: −0.13

## O=C(c1cc(Cc2n[nH]c(=O)c3ccccc23)ccc1F)N1CCN(C(=O)C2CC2)CC1 [Olaparib]
[1]; [12]
  Difference: −0.72
[1]; [13]
  Cholesterol-free: 1.436
[1]; [14]
  Complete: 0.7169
[2]; [20]
  Cholesterol-free media + simvastatin (0.04 μM): 0.8331
[2]; [21]
  Complete Media: 0.8347
[2]; [22]
  Difference: 0.00

## CCC[C@@H]1C[C@@H](C(=O)N[C@@H]([C@H]2O[C@H](SC)[C@H](O)[C@@H](O)[C@H]2O)[C@@H](C)O)N(C)C1 [Lincomycin (hydrochloride monohydrate)]
[1]; [16]
  Cholesterol-free: 1.114
[1]; NCI-H292 cells, complete media
  Complete: 0.7781
[1]; [19]
  Difference: −0.34
[2]; [6]
  Cholesterol-free media + simvastatin (0.04 μM): 0.819
[2]; [7]
  Complete Media: 0.8378
[2]; [8]
  Difference: 0.02

## Cc1onc(-c2ccccc2)c1C(=O)N[C@@H]1C(=O)N2[C@@H]1SC(C)(C)[C@@H]2C(=O)O [Oxacillin (sodium monohydrate)]
[1]; [15]
  Difference: −0.02
[1]; [3]
  Cholesterol-free: 0.9255
[1]; [4]
  Complete: 0.9062
[2]; [17]
  Cholesterol-free media + simvastatin (0.04 μM): 1.304
[2]; [18]
  Complete Media: 1.035
[2]; [11]
  Difference: −0.27

## N[C@@H](CC(=O)N1CCn2c(nnc2C(F)(F)F)C1)Cc1cc(F)c(F)cc1F [Sitagliptin]
[1]; [23]
  Difference: −0.08
[1]; [24]
  Cholesterol-free: 0.9944
[1]; [10]
  Complete: 0.9145
[2]; [9]
  Cholesterol-free media + simvastatin (0.04 μM): 1.605
[2]; [10]
  Complete Media: 1.493
[2]; [11]
  Difference: −0.11

## Nc1cccc2c1CN(C1CCC(=O)NC1=O)C2=O (centres unmarked) [Lenalidomide (hemihydrate)]
[1]; [15]
  Difference: −0.19
[1]; [16]
  Cholesterol-free: 1.181
[1]; NCI-H292 cells, complete media
  Complete: 0.9861
[2]; [17]
  Cholesterol-free media + simvastatin (0.04 μM): 1.432
[2]; [18]
  Complete Media: 1.135
[2]; [11]
  Difference: −0.30

## C#CCN[C@H]1CCc2ccccc21 [(S)-Rasagiline]
[1]; [15]
  Difference: 0.05
[1]; [3]
  Cholesterol-free: 1.001
[1]; [4]
  Complete: 1.048
[2]; [17]
  Cholesterol-free media + simvastatin (0.04 μM): 1.283
[2]; [18]
  Complete Media: 0.8996
[2]; [11]
  Difference: −0.38

## CN1CCC(=C2c3ccccc3Sc3ccccc32)CC1 [Pimethixene maleate]
[1]; [16]
  Cholesterol-free: 1.492
[1]; NCI-H292 cells, complete media
  Complete: 1.142
[1]; [19]
  Difference: −0.35
[2]; NCI-H292 cells, drug in cholesterol-free media with simvastatin 0.04 μM
  Cholesterol-free media + simvastatin (0.04 μM): 1.097
[2]; NCI-H292 cells, drug in complete media
  Complete Media: 0.9153
[2]; [11]
  Difference: −0.18

## COc1ccc2cc3[n+](cc2c1OC)CCc1cc2c(cc1-3)OCO2.O.[Cl-] [Berberine (chloride hydrate)]
[1]; [23]
  Difference: −0.18
[1]; [24]
  Cholesterol-free: 0.263
[1]; [10]
  Complete: 0.07956
[2]; [20]
  Cholesterol-free media + simvastatin (0.04 μM): 0.3813
[2]; [21]
  Complete Media: 0.3495
[2]; [22]
  Difference: −0.03

## C[C@@H](NCCCc1cccc(C(F)(F)F)c1)c1cccc2ccccc12 [Cinacalcet (hydrochloride)]
[1]; [16]
  Cholesterol-free: 1.099
[1]; NCI-H292 cells, complete media
  Complete: 0.7862
[1]; [19]
  Difference: −0.31
[2]; [6]
  Cholesterol-free media + simvastatin (0.04 μM): 0.9304
[2]; [7]
  Complete Media: 0.9877
[2]; [8]
  Difference: 0.06

## C=C[C@@H]1C[C@]1(NC(=O)[C@@H]1C[C@@H](Oc2ncc(OC)c3ccc(Cl)cc23)CN1C(=O)[C@@H](NC(=O)OC(C)(C)C)C(C)(C)C)C(=O)NS(=O)(=O)C1CC1 [Asunaprevir]
[1]; [23]
  Difference: −0.09
[1]; [24]
  Cholesterol-free: 1.081
[1]; [10]
  Complete: 0.9902
[2]; [20]
  Cholesterol-free media + simvastatin (0.04 μM): 1.005
[2]; [21]
  Complete Media: 0.9979
[2]; [22]
  Difference: −0.01

## Nc1nc2[nH]cc(CCc3ccc(C(=O)N[C@@H](CCC(=O)O)C(=O)O)cc3)c2c(=O)[nH]1 [Pemetrexed (disodium)]
[1]; [15]
  Difference: −0.19
[1]; [16]
  Cholesterol-free: 0.3169
[1]; NCI-H292 cells, complete media
  Complete: 0.1251
[2]; [6]
  Cholesterol-free media + simvastatin (0.04 μM): 0.1199
[2]; [7]
  Complete Media: 0.1499
[2]; [8]
  Difference: 0.03

## CCN(CC)C(=S)SSC(=S)N(CC)CC [Disulfiram]
[1]; [15]
  Difference: −0.02
[1]; [3]
  Cholesterol-free: 0.0139
[1]; [4]
  Complete: −0.001922
[2]; [9]
  Cholesterol-free media + simvastatin (0.04 μM): 0.005061
[2]; [10]
  Complete Media: −0.0784
[2]; [11]
  Difference: −0.08

## Cc1cccc([C@H](C)c2cnc[nH]2)c1C [Dexmedetomidine (hydrochloride)]
[1]; [15]
  Difference: −0.05
[1]; [3]
  Cholesterol-free: 0.9551
[1]; [4]
  Complete: 0.9084
[2]; [20]
  Cholesterol-free media + simvastatin (0.04 μM): 1.227
[2]; [21]
  Complete Media: 1.157
[2]; [22]
  Difference: −0.07

## COC(=O)N[C@H](C(=O)N1CCC[C@H]1c1nc(-c2ccc3c(c2)O[C@@H](c2ccccc2)n2c-3cc3cc(-c4c[nH]c([C@@H]5CCCN5C(=O)[C@@H](NC(=O)OC)C(C)C)n4)ccc32)c[nH]1)C(C)C [Elbasvir]
[1]; [12]
  Difference: −0.70
[1]; [13]
  Cholesterol-free: 1.334
[1]; [14]
  Complete: 0.6346
[2]; [20]
  Cholesterol-free media + simvastatin (0.04 μM): 0.9746
[2]; [21]
  Complete Media: 0.9378
[2]; [22]
  Difference: −0.04
